Measured values as given in US20230407243A1, “GENETIC PLATFORM TO INVESTIGATE THE FUNCTIONS OF BACTERIAL DRUG EFFLUX PUMPS” (priority 2022, published 2023).
Like-named read-outs stand apart in the source and are kept apart here.

Assays:
Assay type in all cases: cell-based, Escherichia coli
E. coli EKO-35 = experiment: microbe, parasite or virus in culture; details: for MIC: Escherichia coli, EKO35
How it was run: (§1)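 Growth inhibition was scored by OD600, with readings taken before incubation subtracted from those after. Cells were grown in MHB II at 37 °C for 18 h with aeration, against duplicate 2-fold compound series and DMSO-only wells. Inoculum: PBS suspension at OD600 ~1.0 diluted 1/2000.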

E. coli ΔtolC = experiment: microbe, parasite or virus in culture; details: for Minimum inhibitory concentration (MIC), ΔtolC: Table 10, without pore
How it was run: as §1

[1] = system: wild-type E. coli K-12 str. BW25113; experiment: microbe, parasite or virus in culture; details: technical duplicate; for MIC: Escherichia coli, BW25113
How it was run: as §1

EKO-35 araC::acrBD408A = experiment: MIC susceptibility profiling, efflux platform
How it was run: as §1

EKO-35 araC::acrEF = experiment: MIC susceptibility profiling, efflux platform
How it was run: as §1

EKO-35 araC::mdtBC = experiment: MIC susceptibility profiling, efflux platform
How it was run: as §1

wild-type (WT) K-12-Pore = experiment: microbe, parasite or virus in culture; details: technical duplicate; for MIC: Escherichia coli
How it was run: (§2)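 MIC values come from background-corrected OD600 readings (pre-incubation OD subtracted) after 18 h at 37 °C and 900 rpm in MHB II. Compounds were tested in duplicate as 2-fold dilutions. The inoculum came from 18 h LB cultures adjusted to OD600 ~1.0 and diluted 1/2000, and the pore-bearing strains were vancomycin-checked beforehand.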

ΔtolC-Pore = experiment: microbe, parasite or virus in culture; details: for Minimum inhibitory concentration (MIC), Pore ΔtolC: Table 10, with pore
How it was run: as §2

EKO-35-Pore = experiment: MIC susceptibility profiling, porinated strain; details: for MIC: Escherichia coli
How it was run: as §2

EKO-35 araC::acrB Pore = experiment: MIC susceptibility profiling, porinated efflux platform
How it was run: as §2

[2] = system: EKO-35 araC::acrBD408A Pore; experiment: as above
How it was run: as §2

EKO-35 araC::acrD Pore = experiment: as above
How it was run: as §2

EKO-35 araC::acrEF Pore = experiment: as above
How it was run: as §2

EKO-35 araC::emrAB Pore = experiment: as above
How it was run: as §2

EKO-35 araC::emrKY Pore = experiment: as above
How it was run: as §2

EKO-35 araC::macAB Pore = experiment: as above
How it was run: as §2

EKO-35 araC::mdtBC Pore = experiment: as above
How it was run: as §2

EKO-35 araC::mdtEF Pore = experiment: as above
How it was run: as §2

EKO-35 araC::mexCD Pore = experiment: as above
How it was run: as §2

[3] = Table 13A, non-porinated, technical duplicate
[4] = Table 13B, non-porinated, technical duplicate
[5] = Table 14A, porinated, technical duplicate

benzalkonium chloride
Fold change of MICs (E. coli EKO-35; EKO-35 compared to EKO-35 (reference)): 1 fold | Minimum inhibitory concentration (MIC), EKO-35 (E. coli EKO-35; Table 10, without pore, technical duplicate): 0.391 µg/mL | Minimum Inhibitory Concentration, EKO-35 (E. coli EKO-35; [3]): 0.391 µg/mL | Minimum inhibitory concentration (MIC), ΔtolC (E. coli ΔtolC; technical duplicate): 0.391 µg/mL | Minimum Inhibitory Concentration, ΔtolC (E. coli ΔtolC; [3]): 0.391 µg/mL | Minimum inhibitory concentration (MIC), K-12 ([1]; Table 10, without pore): 12.5 µg/mL | Minimum Inhibitory Concentration, K-12 ([1]; Table 13A, non-porinated): 12.5 µg/mL | Fold change of MICs (EKO-35 araC::acrBD408A; EKO-35 araC::acrBD408A compared to EKO-35): 1 fold | Minimum Inhibitory Concentration, EKO-35 araC::acrBD408A (EKO-35 araC::acrBD408A; [4]): 0.391 µg/mL | Fold change of MICs (EKO-35 araC::acrEF; EKO-35 araC::acrEF compared to EKO-35): 4 fold | Minimum Inhibitory Concentration, EKO-35 araC::acrEF (EKO-35 araC::acrEF; [3]): 1.563 µg/mL | Fold change of MICs (EKO-35 araC::mdtBC; EKO-35 araC::mdtBC compared to EKO-35): 1 fold | Minimum Inhibitory Concentration, EKO-35 araC::mdtBC (EKO-35 araC::mdtBC; [4]): 0.391 µg/mL | Minimum inhibitory concentration (MIC), Pore K-12 (wild-type (WT) K-12-Pore; Table 10, with pore): 6.25 µg/mL | Minimum inhibitory concentration, K-12 (WT)-Pore (wild-type (WT) K-12-Pore; Table 14A, porinated): 6.25 µg/mL | Minimum inhibitory concentration (MIC), Pore ΔtolC (ΔtolC-Pore; technical duplicate): 0.391 µg/mL | Minimum inhibitory concentration, ΔtolC-Pore (ΔtolC-Pore; [5]): 0.391 µg/mL | Fold changes of MICs (EKO-35-Pore; EKO-35-Pore compared to EKO-35-Pore (reference)): 1 fold | Minimum inhibitory concentration (MIC), Pore EKO-35 (EKO-35-Pore; Table 10, with pore, technical duplicate): 0.391 µg/mL | Minimum inhibitory concentration, EKO-35-Pore (EKO-35-Pore; [5]): 0.391 µg/mL | Fold changes of MICs (EKO-35 araC::acrB Pore; EKO-35 araC::acr-B Pore compared to EKO-35-Pore): 8 fold | Minimum inhibitory concentration, EKO-35 araC::acrB Pore (EKO-35 araC::acrB Pore; [5]): 3.125 µg/mL | Fold changes of MICs ([2]; EKO-35 araC::acrBD408A Pore compared to EKO-35-Pore): 1 fold | Minimum inhibitory concentration ([2]; EKO-35 araC::acrBD408A Pore, technical duplicate): 0.391 µg/mL | Fold changes of MICs (EKO-35 araC::acrD Pore; EKO-35 araC::acrD Pore compared to EKO-35-Pore): 1 fold | Minimum inhibitory concentration, EKO-35 araC::acrD Pore (EKO-35 araC::acrD Pore; [5]): 0.391 µg/mL | efflux pump-mediated resistance vs EKO-35-Pore (EKO-35 araC::acrEF Pore; AcrEF with the pore): impacted the ability of AcrEF to confer resistance | Fold changes of MICs (EKO-35 araC::acrEF Pore; EKO-35 araC::acrEF Pore compared to EKO-35-Pore): 2 fold | Minimum inhibitory concentration, EKO-35 araC::acrEF Pore (EKO-35 araC::acrEF Pore; [5]): 0.781 µg/mL | Fold changes of MICs (EKO-35 araC::emrAB Pore; EKO-35 araC::emrAB Pore compared to EKO-35-Pore): 1 fold | Minimum inhibitory concentration (EKO-35 araC::emrAB Pore; EKO-35 araC::emrAB Pore, technical duplicate): 0.391 µg/mL | Fold changes of MICs (EKO-35 araC::emrKY Pore; EKO-35 araC::emrKY Pore compared to EKO-35-Pore): 1 fold | Minimum inhibitory concentration (EKO-35 araC::emrKY Pore; EKO-35 araC::emrKY Pore, technical duplicate): 0.195 µg/mL | Fold changes of MICs (EKO-35 araC::macAB Pore; EKO-35 araC::macAB Pore compared to EKO-35-Pore): 1 fold | Minimum inhibitory concentration (EKO-35 araC::macAB Pore; EKO-35 araC::macAB Pore, technical duplicate): 0.391 µg/mL | Fold changes of MICs (EKO-35 araC::mdtBC Pore; EKO-35 araC::mdtBC Pore compared to EKO-35-Pore): 1 fold | Minimum inhibitory concentration (EKO-35 araC::mdtBC Pore; EKO-35 araC::mdtBC Pore, technical duplicate): 0.195 µg/mL | Fold changes of MICs (EKO-35 araC::mdtEF Pore; EKO-35 araC::mdtEF Pore compared to EKO-35-Pore): 4 fold | Minimum inhibitory concentration, EKO-35 araC::mdtEF Pore (EKO-35 araC::mdtEF Pore; [5]): 1.563 µg/mL | Fold changes of MICs (EKO-35 araC::mexCD Pore; EKO-35 araC::mexCD Pore compared to EKO-35-Pore): 1 fold | Minimum inhibitory concentration (EKO-35 araC::mexCD Pore; EKO-35 araC::mexCD Pore, technical duplicate): 0.391 µg/mL

Cc1onc(-c2ccccc2)c1C(=O)N[C@@H]1C(=O)N2[C@@H]1SC(C)(C)[C@@H]2C(=O)O [oxacillin]
MIC (E. coli EKO-35; Table 10, without pore, technical duplicate, read-out: Minimum inhibitory concentration (MIC), EKO-35): 0.625 µg/mL | MIC (E. coli EKO-35; Table 13A, non-porinated, technical duplicate, read-out: Minimum Inhibitory Concentration, EKO-35): 0.625 µg/mL | MIC (E. coli ΔtolC; Escherichia coli, 18 h, read-out: Minimum Inhibitory Concentration, ΔtolC): 0.625 µg/mL | Minimum inhibitory concentration (MIC), ΔtolC (E. coli ΔtolC; technical duplicate): 0.625 µg/mL | MIC ([1]; Table 10, without pore, read-out: Minimum inhibitory concentration (MIC), K-12): 160 µg/mL | MIC ([1]; Table 13A, non-porinated, read-out: Minimum Inhibitory Concentration, K-12): 160 µg/mL | MIC (EKO-35 araC::acrBD408A; Escherichia coli, Table 13B, non-porinated, technical duplicate, read-out: Minimum Inhibitory Concentration, EKO-35 araC::acrBD408A): 1.25 µg/mL | MIC (EKO-35 araC::acrEF; Escherichia coli, Table 13A, non-porinated, technical duplicate, read-out: Minimum Inhibitory Concentration, EKO-35 araC::acrEF): 160 µg/mL | MIC (EKO-35 araC::mdtBC; Escherichia coli, Table 13B, non-porinated, technical duplicate, read-out: Minimum Inhibitory Concentration, EKO-35 araC::mdtBC): 0.625 µg/mL | MIC (wild-type (WT) K-12-Pore; Table 10, with pore, read-out: Minimum inhibitory concentration (MIC), Pore K-12): 40 µg/mL | MIC (wild-type (WT) K-12-Pore; Table 14A, porinated, read-out: Minimum inhibitory concentration, K-12 (WT)-Pore): 40 µg/mL | MIC (ΔtolC-Pore; Escherichia coli, 18 h, read-out: Minimum inhibitory concentration, ΔtolC-Pore): 0.313 µg/mL | Minimum inhibitory concentration (MIC), Pore ΔtolC (ΔtolC-Pore; technical duplicate): 0.313 µg/mL | MIC (EKO-35-Pore; Table 10, with pore, technical duplicate, read-out: Minimum inhibitory concentration (MIC), Pore EKO-35): 0.313 µg/mL | MIC (EKO-35-Pore; Table 14A, porinated, technical duplicate, read-out: Minimum inhibitory concentration, EKO-35-Pore): 0.313 µg/mL | MIC (EKO-35 araC::acrB Pore; Escherichia coli, Table 14A, porinated, technical duplicate, read-out: Minimum inhibitory concentration, EKO-35 araC::acrB Pore): 20 µg/mL | MIC ([2]; Escherichia coli, EKO-35 araC::acrBD408A Pore, technical duplicate, read-out: Minimum inhibitory concentration): 0.156 µg/mL | MIC (EKO-35 araC::acrD Pore; Escherichia coli, Table 14A, porinated, technical duplicate, read-out: Minimum inhibitory concentration, EKO-35 araC::acrD Pore): 20 µg/mL | MIC (EKO-35 araC::acrEF Pore; Escherichia coli, Table 14A, porinated, technical duplicate, read-out: Minimum inhibitory concentration, EKO-35 araC::acrEF Pore): 5 µg/mL | MIC (EKO-35 araC::emrAB Pore; Escherichia coli, EKO-35 araC::emrAB Pore, technical duplicate, read-out: Minimum inhibitory concentration): 0.313 µg/mL | MIC (EKO-35 araC::emrKY Pore; Escherichia coli, EKO-35 araC::emrKY Pore, technical duplicate, read-out: Minimum inhibitory concentration): 0.313 µg/mL | MIC (EKO-35 araC::macAB Pore; Escherichia coli, EKO-35 araC::macAB Pore, technical duplicate, read-out: Minimum inhibitory concentration): 0.313 µg/mL | MIC (EKO-35 araC::mdtBC Pore; Escherichia coli, EKO-35 araC::mdtBC Pore, technical duplicate, read-out: Minimum inhibitory concentration): 0.313 µg/mL | MIC (EKO-35 araC::mdtEF Pore; Escherichia coli, Table 14A, porinated, technical duplicate, read-out: Minimum inhibitory concentration, EKO-35 araC::mdtEF Pore): 1.25 µg/mL | MIC (EKO-35 araC::mexCD Pore; Escherichia coli, EKO-35 araC::mexCD Pore, technical duplicate, read-out: Minimum inhibitory concentration): 2.5 µg/mL
